Laboratory results taken from patent US20260083714A1, “DOSING REGIMEN FOR TREATING PKU WITH A PIPERIDINE INHIBITOR OF SLC6A19 FUNCTION” (Jnana Therapeutics Inc., priority 2022, published 2026).
Read-outs that look alike come from different tables or passages of the source.

Key:
[1] = target: T1, SLC6A19 (Homo sapiens, UniProt Q695T7); assay: Amino acid excretion over 24 h after a single dose of suspension in healthy volunteers; format: in vivo
T1 construct: SCL6A19 is located in the proximal tubule of the kidney and is responsible for reabsorption of amino acids back into the blood; from tissue; host or cells: Kidney proximal tubule of healthy volunteers (in vivo, endogenous)
T1 sequence (Q695T7 1-634): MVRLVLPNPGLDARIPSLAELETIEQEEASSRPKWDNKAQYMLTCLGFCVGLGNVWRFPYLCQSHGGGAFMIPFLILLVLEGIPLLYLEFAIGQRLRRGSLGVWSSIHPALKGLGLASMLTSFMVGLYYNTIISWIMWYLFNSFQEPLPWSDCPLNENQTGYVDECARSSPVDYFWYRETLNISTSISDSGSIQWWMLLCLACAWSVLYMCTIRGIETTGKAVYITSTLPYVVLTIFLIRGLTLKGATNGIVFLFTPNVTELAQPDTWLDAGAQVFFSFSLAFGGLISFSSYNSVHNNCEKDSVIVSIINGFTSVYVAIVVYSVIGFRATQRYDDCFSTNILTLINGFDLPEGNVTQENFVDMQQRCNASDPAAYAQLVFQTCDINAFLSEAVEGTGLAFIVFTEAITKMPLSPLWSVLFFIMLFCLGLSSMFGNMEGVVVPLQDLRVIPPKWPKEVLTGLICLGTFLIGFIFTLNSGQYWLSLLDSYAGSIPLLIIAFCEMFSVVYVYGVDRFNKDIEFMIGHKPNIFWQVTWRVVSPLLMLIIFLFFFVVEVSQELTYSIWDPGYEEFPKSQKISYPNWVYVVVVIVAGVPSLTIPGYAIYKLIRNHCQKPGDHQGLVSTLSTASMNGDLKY
T1 sequence (Q9HBJ8 15-222 partner): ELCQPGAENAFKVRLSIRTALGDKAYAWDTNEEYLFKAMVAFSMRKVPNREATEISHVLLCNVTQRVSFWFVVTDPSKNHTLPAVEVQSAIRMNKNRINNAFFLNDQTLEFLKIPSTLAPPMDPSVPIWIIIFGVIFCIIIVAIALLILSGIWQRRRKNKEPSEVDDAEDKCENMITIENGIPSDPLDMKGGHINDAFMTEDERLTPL
Procedure: FIG. 1 is a graph of the pharmacodynamic effect of Compound 1 in healthy volunteers showing changes in total phenylalanine or overall SLC6A19 amino acid substrates (Hartnup amino acids) excretion over 24 hours following administration of a single dose of the compound (10-170 mg) in the form of a suspension.
A suspension formulation of varying doses of Compound 1 (10-170 mg) was administered to healthy volunteers. Changes in amino acid excretion over 24 h following a single dose were measured (FIG. 1). Up to a 14-fold increase in total Phe excretion (from 10 mg to 142 mg) and a 16-fold increase in Hartnup AA excretion (from 0.29 g to 4.8 g) were observed over 24 hr after dosing (Tables 13A and 13B).

[2] = Plasma levels of Compound 1 over 72 h, suspension versus tablet, fasted or fed, in healthy volunteers; format: in vivo; details: human, oral, 100 mg, read-out: Plasma level, Mean; for concentration at 0.5 h: 0.5 h post-dose; for concentration at 1 h: 1 h post-dose; for concentration at 1.5 h: 1.5 h post-dose; for concentration at 2 h: 2 h post-dose; for concentration at 2.5 h: 2.5 h post-dose; for concentration at 3 h: 3 h post-dose; for concentration at 4 h: 4 h post-dose; for concentration at 6 h: 6 h post-dose; for concentration at 8 h: 8 h post-dose; for concentration at 10 h: 10 h post-dose; for concentration at 12 h: 12 h post-dose; for concentration at 24 h: 24 h post-dose; for concentration at 36 h: 36 h post-dose; for concentration at 48 h: 48 h post-dose; for concentration at 72 h: 72 h post-dose; for concentration at 0 h: 0 h post-dose
Procedure: FIG. 4 is a graph of the pharmacokinetics of Compound 1 over 72 hours in healthy volunteers in fed or fasted states when administering 100 mg of the compound as a suspension formulation or a tablet.
A suspension formulation (100 mg, fasted) and tablet formulation (100 mg, fasted or fed) of Compound 1 was administered to healthy volunteers. Plasma levels of Compound 1 over 72 was measured (FIG. 4). Post-dose plasma levels are recited in Table 16.

[3] = single dose suspension, highest value of 10-170 mg

## NC(=O)N1CCC[C@@H](N(C(=O)NCc2ccc(OC(F)(F)F)cc2F)C2CC2)C1 [Cpd 1, (R)-3-(1-cyclopropyl-3-(2-fluoro-4-(trifluoromethoxy)benzyl)ureido) piperidine-1-carboxamide]
[1]; single dose 10 mg suspension
  Excretion amounts over 24 h, Hartnup Amino Acids, Mean: 712.45 mg
  Excretion amounts over 24 h, Phenylalanine, Mean: 12.50 mg
[1]; single dose 25 mg suspension
  Excretion amounts over 24 h, Hartnup Amino Acids, Mean: 1213.02 mg
  Excretion amounts over 24 h, Phenylalanine, Mean: 21.02 mg
[1]; single dose 50 mg suspension
  Excretion amounts over 24 h, Hartnup Amino Acids, Mean: 2560.22 mg
  Excretion amounts over 24 h, Phenylalanine, Mean: 51.53 mg
[1]; single dose 100 mg suspension
  Excretion amounts over 24 h, Hartnup Amino Acids, Mean: 3281.75 mg
  Excretion amounts over 24 h, Phenylalanine, Mean: 77.84 mg
[1]; single dose 170 mg suspension
  Excretion amounts over 24 h, Hartnup Amino Acids, Mean: 4823.71 mg
  Excretion amounts over 24 h, Phenylalanine, Mean: 141.61 mg
[1]; single dose 10-170 mg suspension, versus 10 mg baseline
  increase in total Phe excretion over 24 hr after dosing: ≤ 14 fold
[1]; single dose 10-170 mg suspension, versus 0.29 g baseline
  increase in Hartnup AA excretion over 24 hr after dosing: ≤ 16 fold
[1]; [3]
  Hartnup AA excretion over 24 hr after dosing: 4.8 g
  total Phe excretion over 24 hr after dosing: 142 mg
[2]; 100 mg suspension, fasted
  concentration at 0.5 h: 1840 ng/mL
  concentration at 1 h: 2310 ng/mL
  concentration at 1.5 h: 2440 ng/mL
  concentration at 2 h: 2630 ng/mL
  concentration at 2.5 h: 2620 ng/mL
  concentration at 3 h: 2720 ng/mL
  concentration at 4 h: 2750 ng/mL
  concentration at 6 h: 2090 ng/mL
  concentration at 8 h: 1580 ng/mL
  concentration at 10 h: 1110 ng/mL
  concentration at 12 h: 778 ng/mL
  concentration at 24 h: 216 ng/mL
  concentration at 36 h: 50 ng/mL
  concentration at 48 h: 24.2 ng/mL
  concentration at 72 h: 12.8 ng/mL
[2]; 100 mg tablet, fasted
  concentration at 0 h: 12.1 ng/mL
  concentration at 0.5 h: 1600 ng/mL
  concentration at 1 h: 2110 ng/mL
  concentration at 1.5 h: 2400 ng/mL
  concentration at 2 h: 2550 ng/mL
  concentration at 2.5 h: 2530 ng/mL
  concentration at 3 h: 2580 ng/mL
  concentration at 4 h: 2580 ng/mL
  concentration at 6 h: 2070 ng/mL
  concentration at 8 h: 1650 ng/mL
  concentration at 10 h: 1250 ng/mL
  concentration at 12 h: 891 ng/mL
  concentration at 24 h: 324 ng/mL
  concentration at 36 h: 59.5 ng/mL
  concentration at 48 h: 29 ng/mL
  concentration at 72 h: 11.4 ng/mL
[2]; 100 mg tablet, fed
  concentration at 0 h: 12.1 ng/mL
  concentration at 0.5 h: 1660 ng/mL
  concentration at 1 h: 2220 ng/mL
  concentration at 1.5 h: 2320 ng/mL
  concentration at 2 h: 2850 ng/mL
  concentration at 2.5 h: 2910 ng/mL
  concentration at 3 h: 2950 ng/mL
  concentration at 4 h: 2860 ng/mL
  concentration at 6 h: 2260 ng/mL
  concentration at 8 h: 1740 ng/mL
  concentration at 10 h: 1270 ng/mL
  concentration at 12 h: 963 ng/mL
  concentration at 24 h: 329 ng/mL
  concentration at 36 h: 90.1 ng/mL
  concentration at 48 h: 45 ng/mL
  concentration at 72 h: 15 ng/mL
